Assay results as given in patent US20250304526A1, “HIGH AND MULTIPLE REDOX POTENTIAL, STABLE, AND SOLUBLE BIS-DIARYLAMINE DERIVATIVES AND USES THEREOF” (University of Kentucky Research Foundation, priority 2024, published 2025).

Tests used:
[1] = Galvanostatic bulk electrolysis (BE) cycling in H-cell; type: physicochemical; settings: for Cyclic voltammograms before and after BE (decomposition check): 0.1M TBAPF6/CH3CN, scan rate 0.2 V·s^−1
Method: BE experiments were performed in custom-made H-cells. The H-cell has two electrolyte chambers separated by an ultra-fine porous glass frit (P5, Adams and Chittenden) which prevents the mixing of the electrolytes. Two homemade reticulated vitreous carbon (45 PPI, Duocel®) electrodes, placed in both chambers separately served as the working and counter electrodes. A non-aqueous Ag/Ag^+ (silver wire immersed in CH3CN containing 0.1 M TBABF4 and 0.01 M AgBF4) electrodes was used as a reference electrode and was placed next to the working electrode in the same chamber. In addition, a 3 mm-glassy carbon electrode (CH Instruments, Inc.) was attached to the working electrode chamber to record CVs before and after bulk electrolysis experiments. In each of the working and the counter electrode chambers, 3.5 mL of electrolyte containing a given concentration of the neutral active species and 0.1 M TBAPF6/CH3CN were added to both the working and the counter electrode chambers for charge-discharge cycling. The voltage cut-offs were determined by recording a CV in the working electrode side prior to the start of the bulk electrolysis experiment. The values of the cut-off voltage were set by adding 0.3 V to the calculated half-way oxidation potential determined by CV. Both the working and the counter electrode chambers were stirred throughout the bulk electrolysis experiments at a stirring speed of 900 rpm to maintain mass transfer during charging and discharging. The experiment was conducted at variable C-rates, starting with 3 C then 2 C and finally 1 C with 8 cycles run at each C-rate. The galvanostatic control and data acquisition were achieved by incorporating a BioLogic VSP potentiostat.
Galvanostatic bulk electrolysis (BE) cycling was performed to monitor the charged species self-discharge by following the coulombic efficiency (CE). BE is particularly interesting because it provides deeper insights on the electrochemical stability of the electroactive compounds upon continuous galvanostatic cycling. More information about this technique is provided in the supplementary information. Essentially, if trace impurities existing in the electrolyte trigger self-discharge of the charged species, a relatively large portion of oxidized species will switch to its uncharged form if the concentration of active species is low. However, at elevated concentrations, the relative concentration of impurities with respect to active species will be considerably lower and their effect will be minimized. In other words, higher CEs are expected when the active species concentration is larger.
CE is calculated by dividing the amount of charge passed during discharging (Qdischarge) by the amount of charge passed during charging (Qcharge). A considerably lower than 99% CE indicates instability and decomposition of active material via parasitic processes. It is known that CE is affected by the C-rate at which the battery is charged/discharged. Higher C-rates usually yield higher CEs due to the fact that less time is given for unwanted parasitic processes to consume the charged species, unlike in slow C-rates where such processes are allowed to consume charge leading to lower CEs.
BE cycling was performed at three different C-rates 3 C, 2 C, and 1 C with eight charge/discharge cycles at each C-rate. At slower charge-discharge rates, the accessed capacities were higher. This is expected due to the increase in the cell polarization at faster cycling rates.

[2] = Stability via UV-vis spectroscopy over 24 h; type: physicochemical; settings: 0.5 mM in 0.1 M TBAPF6/CH3CN
Method: In an argon-filled glove box, 0.5 mM solutions of neutral and radical cation were prepared in acetonitrile and pipetted into 1 mm path length optical glass cuvettes. The choice of this path length of cuvette is dictated by the aim to prevent the UV-vis detector saturation of the intensely colored cationic species. All samples destined to UV-vis stability monitoring contained 0.1 M TBAPF6 whereas UV-NIR samples were in pure CH3CN. Solutions were added to the cuvettes inside an argon filled glovebox, sealed with a Teflon screw cap and removed from the glovebox for spectral analysis. UV-vis spectra were collected in an Agilent 8453 diode-array spectrometer. Spectra were collected at 0, 1, 3, 4, 5, 6 and 24 h after dissolution.
UV-vis spectroscopy provides a means to monitor the stabilities of the radical cations over prolonged time scales that extend beyond that offered by CV. This is possible since all the charged forms show absorption features in the UV and visible regions, which enables monitoring of the change of concentrations over the course of time, based on changes in peak intensities.
The radical cation samples were prepared in 0.1 M TBAPF6/CH3CN inside an argon-filled glovebox and transferred into sealed cuvettes to prevent contact with atmospheric moisture/air when taken outside the glovebox. […]
The neutral samples of each molecule were also monitored for the sake of comparison. […]

| SMILES | Cyclic voltammograms before and after BE (decomposition check) [1] | Capacity retention during BE ([1]; all C-rates (3 C, 2 C, 1 C)) | Stability of radical cation UV-vis absorption spectrum [2] | Capacity retention during BE ([1]; after 8 cycles at 1 C) | Capacity retention during BE ([1]; after 8 cycles at 2 C) | Capacity retention during BE ([1]; after 8 cycles at 3 C) |
| --- | --- | --- | --- | --- | --- | --- |
| COc1ccc(N(c2ccc(OC)cc2)c2ccc(N(c3ccc(OC)cc3)c3ccc(OC)cc3)cc2)cc1 [1^+⋅] | nearly identical | ~99% | – | – | – | – |
| COc1ccc(N(c2ccc(OC)cc2)c2ccc(-c3ccc(N(c4ccc(OC)cc4)c4ccc(OC)cc4)cc3)cc2)cc1 [2^+⋅] | identical CVs | good capacity retention | – | – | – | – |
| Cc1ccc(C(F)(F)F)cc1N(c1ccc(N(c2cc(C(F)(F)F)ccc2C)c2cc(C(F)(F)F)ccc2C)cc1)c1cc(C(F)(F)F)ccc1C [3^+⋅] | nearly identical features | – | very subtle changes | 94% | 97% | 99% |
| Cc1ccc(C(F)(F)F)cc1N(c1ccc(-c2ccc(N(c3cc(C(F)(F)F)ccc3C)c3cc(C(F)(F)F)ccc3C)cc2)cc1)c1cc(C(F)(F)F)ccc1C [4^+⋅] | substantial decrease in the peak heights | remarkable capacity decay | rapid decay | – | – | – |
